# Measured values taken from patent publication EP0973746B1, “SUBSTITUTED 3-CYANO QUINOLINES” (Wyeth Holdings Corporation, priority 1997, dated 1998).
# pIC50: −log10 of the molar value. Like-named read-outs stand apart in the source and are kept apart here.
# Tests used:
# [1] = tested on: A431; experiment: Inhibition of cell growth by incorporation of [3H]-thymidine, A431; type: cell-based, human
# [2] = tested on: NHEK; experiment: Inhibition of cell growth by incorporation of [3H]-thymidine, NHEK; type: cell-based, human; conditions: read-out: IC50 NHEK
# Procedure: (§1) Representative compounds of this invention were evaluated for their ability to inhibit the growth of the cell lines described below in vitro. The inhibition is quantitated by measuring the decrease in the incorporation of radio-labeled thymidine when the cells are grown in the presence of the inhibitor. […] Cells were routinely grown in a humidified incubator in 5% CO2 in air.
# (§2) Cells were seeded at 10,000 cells/well in 96 well plates in complete media and allowed to grow to log phase. At this stage the complete media was replaced with media containing 0.5% FBS (for cells growing in 10% FBS) or media lacking epidermal growth factor (EGF) (for cells growing in serum free media). […] Media with test compound was then removed and complete media was added back. The cells were allowed to grow for 18 hours. This is followed by incubation in [^3H]thymidine (1mCi/ml in serum/EGF media) for 4 hours. Cells were lysed in 0.5 M NaOH for at least 30 min at 37°C and radioactivity analyzed.
# (§3) The % inhibition of the compound evaluated was determined for at least three different concentrations and the IC50 value evaluated from the dose response curve. […] CPM(control) is in units of counts per minute and is a number expressing the amount of [^3H]thymidine incorporated onto the DNA when cells are grown in the absence of test compound as measured by liquid scintillation counting.
# [3] = tested on: HTB161; experiment: Inhibition of cancer cell growth as measured by cell number, HTB161; type: cell-based; conditions: Homo sapiens, 48 h, read-out: IC50 HTB161
# [4] = tested on: A27805; experiment: Inhibition of cancer cell growth as measured by cell number, A27805; type: cell-based; conditions: Homo sapiens, 48 h, read-out: IC50 A27805
# [5] = tested on: A2780DDP; experiment: Inhibition of cancer cell growth as measured by cell number, A2780DDP; type: cell-based; conditions: Homo sapiens, 48 h, read-out: IC50 A2780DDP
# [6] = tested on: MIP; experiment: Inhibition of cancer cell growth as measured by cell number, MIP; type: cell-based; conditions: Homo sapiens; cell number, Sulforhodamine B, 48 hours exposure; Table 4; read-out: IC50 MIP
# [7] = tested on: SW620; experiment: Inhibition of cancer cell growth as measured by cell number, SW620; type: cell-based, human; conditions: Homo sapiens, SW-620, 48 h, read-out: IC50 SW620, cell number, Sulforhodamine B, 48 hours exposure; Table 4;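 further: SW620 was included as a cell line with little or no EGFR or HER2/neu expression, in contrast to receptor-overexpressing lines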
# Source text: (§4) The cell lines were chosen since they overexpressed epidermal growth factor receptor (EGFR) (i.e. A431) or HER2/neu (SKBR3), or had little to no expression of the these receptors (SW620, LOX, MCF7).
# [8] = tested on: COLO205; experiment: Inhibition of cancer cell growth as measured by cell number, COLO205; type: cell-based; conditions: Homo sapiens, COLO 205, 48 h, read-out: IC50 COLO205
# [9] = tested on: CX1; experiment: Inhibition of cancer cell growth as measured by cell number, CX1; type: cell-based; conditions: Homo sapiens, CX-1, 48 h, read-out: IC50 CX1
# [10] = tested on: CACO2; experiment: Inhibition of cancer cell growth as measured by cell number, CACO2; type: cell-based; conditions: Homo sapiens, Caco-2, 48 h, read-out: IC50 CACO2
# [11] = tested on: HCT15; experiment: Inhibition of cancer cell growth as measured by cell number, HCT15; type: cell-based; conditions: Homo sapiens, HCT-15, 48 h, read-out: IC50 HCT15
# [12] = tested on: LS174T; experiment: Inhibition of cancer cell growth as measured by cell number, LS174T; type: cell-based; conditions: Homo sapiens, 48 h, read-out: IC50 LS174T
# [13] = tested on: SW948; experiment: Inhibition of cancer cell growth as measured by cell number, SW948; type: cell-based; conditions: Homo sapiens, SW948, 48 h, read-out: IC50 SW948
# [14] = tested on: CCL228; experiment: Inhibition of cancer cell growth as measured by cell number, CCL228; type: cell-based; conditions: Homo sapiens, 48 h, read-out: IC50 CCL228
# [15] = tested on: MCF7; experiment: Inhibition of cancer cell growth as measured by cell number, MCF7; type: cell-based, human; conditions: Homo sapiens, MCF7, 48 h, read-out: IC50 MCF7, cell number, Sulforhodamine B, 48 hours exposure; Table 5;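 further: MCF7 was included as a line with little or no EGFR or HER2/neu expression, in contrast to the receptor-overexpressing lines of the panel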
# Source text: as §4
# [16] = tested on: B7474; experiment: Inhibition of cancer cell growth as measured by cell number, B7474; type: cell-based; conditions: Homo sapiens, 48 h, read-out: IC50 B7474
# [17] = tested on: T47D; experiment: Inhibition of cancer cell growth as measured by cell number, T47D; type: cell-based; conditions: Homo sapiens, 48 h, read-out: IC50 T47D
# [18] = tested on: LX1; experiment: Inhibition of cancer cell growth as measured by cell number, LX1; type: cell-based; conditions: Homo sapiens, LX-1, 48 h, read-out: IC50 LX1
# [19] = tested on: A549; experiment: Inhibition of cancer cell growth as measured by cell number, A549; type: cell-based; conditions: Homo sapiens, A549, 48 h, read-out: IC50 A549
# [20] = tested on: LOX; experiment: Inhibition of cancer cell growth as measured by cell number, LOX; type: cell-based, human; conditions: Homo sapiens, LOX, 48 h, read-out: IC50 LOX, cell number, Sulforhodamine B, 48 hours exposure; Table 6;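 further: LOX cells served as a line with low or absent EGFR and HER2/neu expression, in contrast to receptor-overexpressing lines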
# Source text: as §4
# [21] = tested on: A431; experiment: Inhibition of cancer cell growth as measured by cell number, A431; type: cell-based, human; conditions: Homo sapiens, A-431, 48 h, read-out: IC50 A431, cell number, Sulforhodamine B, 48 hours exposure; Table 6;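 further: human A431 line, picked because it overexpresses epidermal growth factor receptor (EGFR)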
# Source text: as §4
# [22] = tested on: NEC; experiment: Inhibition of cancer cell growth as measured by cell number, NEC; type: cell-based; conditions: Homo sapiens, 48 h, read-out: IC50 NEC
# [23] = tested on: DU145; experiment: Inhibition of cancer cell growth as measured by cell number, DU145; type: cell-based; conditions: Homo sapiens, DU-145, 48 h, read-out: IC50 DU145
# [24] = tested on: PC3; experiment: Inhibition of cancer cell growth as measured by cell number, PC3; type: cell-based; conditions: Homo sapiens, PC-3, 48 h, read-out: IC50 PC3
# [25] = tested on: LNCAP; experiment: Inhibition of cancer cell growth as measured by cell number, LNCAP; type: cell-based; conditions: Homo sapiens, 48 h, read-out: IC50 LNCAP
# [26] = tested on: HL60; experiment: Inhibition of cancer cell growth as measured by cell number, HL60; type: cell-based; conditions: Homo sapiens, HL-60, 48 h, read-out: IC50 HL60
# [27] = tested on: CCRF-CFM; experiment: Inhibition of cancer cell growth as measured by cell number, CCRF-CFM; type: cell-based; conditions: Homo sapiens, 48 h, read-out: IC50 CCRF-CFM
# [28] = tested on: SKBR3; experiment: Inhibition of cancer cell growth as measured by cell number, SKBR3; type: cell-based, human; conditions: Homo sapiens, SK-BR-3, 48 h, read-out: IC50 SKBR3, cell number, Sulforhodamine B, 48 hours exposure; Table 7;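 further: SK-BR-3 cells were selected as a line overexpressing HER2/neu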
# Source text: as §4
# [29] = tested on: human epidermoid tumors (A431); experiment: In vivo inhibition of the growth of human epidermoid tumors (A431); conditions: 80 mg/kg administered on days 1, 5, and 9, IP
# How it was run: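 Female BALB/c nu/nu mice from Charles River were injected subcutaneously with 5 X 10^6 human epidermoid (A431) tumor cells. Once tumors weighed 100 to 150 mg, animals were randomized into treatment groups on day zero, and untreated controls were included. Tumor mass, calculated as (length X width^2)/2, was measured every 7 days for 28 days after staging. Relative growth was mean mass on days 7, 14, 21 and 28 divided by the day-zero mean.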
# [30] = target: recombinant human MEK 1 (MAPKK) and recombinant human ERK2 (MAPK); experiment: Mitogen Activated Protein Kinase (MAPK) assay, two component coupled MEK 1 / ERK2; type: biochemical; conditions: separate entries for the same compound = evaluated more than one time;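 further: MEK 1-activated ERK2 phosphorylates MBP or Myc peptide with 33P-ATP, filter capture and scintillation counting, inhibitor preincubated with ERK2 30 min at 0 °C, inhibition relative to uninhibited control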
# [31] = target: epidermal growth factor receptor kinase (Homo sapiens, UniProt P00533); experiment: biochemical
# Chain of epidermal growth factor receptor kinase (P00533 25-1210): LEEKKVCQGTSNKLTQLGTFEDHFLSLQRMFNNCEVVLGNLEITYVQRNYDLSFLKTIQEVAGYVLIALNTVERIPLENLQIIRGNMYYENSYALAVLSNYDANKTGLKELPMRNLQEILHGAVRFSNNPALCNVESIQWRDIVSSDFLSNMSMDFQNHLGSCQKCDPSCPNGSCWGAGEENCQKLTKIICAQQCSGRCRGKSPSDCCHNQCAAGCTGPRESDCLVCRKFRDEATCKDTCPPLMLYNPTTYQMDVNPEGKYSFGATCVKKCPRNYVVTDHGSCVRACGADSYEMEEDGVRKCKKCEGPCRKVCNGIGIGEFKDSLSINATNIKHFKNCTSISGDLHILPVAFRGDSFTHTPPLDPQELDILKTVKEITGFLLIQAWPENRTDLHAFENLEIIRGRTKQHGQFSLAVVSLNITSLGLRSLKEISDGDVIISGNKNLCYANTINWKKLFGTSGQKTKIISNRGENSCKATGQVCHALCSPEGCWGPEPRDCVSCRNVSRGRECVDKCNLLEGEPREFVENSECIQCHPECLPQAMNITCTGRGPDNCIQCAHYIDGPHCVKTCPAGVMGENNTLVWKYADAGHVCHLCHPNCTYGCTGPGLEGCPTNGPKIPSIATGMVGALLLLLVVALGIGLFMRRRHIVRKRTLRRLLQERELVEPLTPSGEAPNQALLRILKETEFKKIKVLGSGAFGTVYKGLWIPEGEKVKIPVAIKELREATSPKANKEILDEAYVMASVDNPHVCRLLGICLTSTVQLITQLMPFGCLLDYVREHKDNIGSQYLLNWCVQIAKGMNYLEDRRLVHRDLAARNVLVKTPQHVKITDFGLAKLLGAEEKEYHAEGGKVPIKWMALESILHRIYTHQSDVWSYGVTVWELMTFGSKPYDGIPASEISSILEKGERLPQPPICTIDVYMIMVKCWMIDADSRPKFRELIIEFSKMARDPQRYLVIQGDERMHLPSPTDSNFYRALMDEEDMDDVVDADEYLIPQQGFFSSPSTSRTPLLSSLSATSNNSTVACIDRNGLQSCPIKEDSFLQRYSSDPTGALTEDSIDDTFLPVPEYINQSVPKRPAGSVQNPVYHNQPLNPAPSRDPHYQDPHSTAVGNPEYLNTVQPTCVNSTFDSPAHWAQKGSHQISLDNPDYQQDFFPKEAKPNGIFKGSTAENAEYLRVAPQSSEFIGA
# Procedure: The enzyme was obtained as a membrane extract of A431 cells (American Type Culture Collection, Rockville, MD). A431 cells were grown in T175 flasks to 80% confluency. The cells were washed twice with phosphate buffered saline (PBS) without Ca^2+. Flasks were rotated for 1.5 hours in 20 ml PBS with 1.0 mM ethylenediaminetetraacetic acid (EDTA) at room temperature and centrifuged at 600g for 10 minutes. The cells were solubilized in 1 ml per 5 x 10^6 cells of cold lysis buffer {10mM 4-(2-hydroxyethyl)-1-piperazineethane-sulfonic acid (HEPES), pH 7.6, 10 mM NaCl, 2mM EDTA, 1mM phenylmethyl-sulfonyl-fluoride (PMSF), 10 mg/ml aprotinin, 10 mg/ml leupeptin, 0.1 mM sodium orthovanadate} in a Dounce homogenizer with 10 strokes on ice. The lysate was centrifuged at 600g for 10 minutes first to clear cell debris and the supernatant further centrifuged at 100,000 g for 30 min at 4°C. The membrane pellet was suspended in 1.5 ml HNG buffer (50 mM HEPES, pH 7.6, 125 mM NaCl, 10% glycerol). The membrane extract was divided into aliquots, immediately frozen in liquid nitrogen and stored at -70°C.
# Compounds to be evaluated were made into 10 mg/ml stock solutions in 100% dimethylsulfoxide (DMSO). Prior to experiment, stock solutions were diluted to 500 mM with buffer (30 mM Hepes pH 7.4) and then serially diluted to the desired concentration.
# An aliquot of the A431 membrane extract (10 mg/ml) was diluted in 30 mM HEPES (pH 7.4) to give a protein concentration of 50 ug/ml. […] To this was added the ^33p-ATP (10 mCi/ml) diluted 1:10 in assay buffer along with the substrate peptide at a concentration of 0.5 mM (control reactions get no test compound) and the reaction was allowed to proceed for 30 min at 30°C. The reaction was stopped with 10% TCA and left on ice for at least 10 min after which tubes were microcentrifuged at full speed for 15 min. The a portion of the supernatants were spotted on P81 phosphocellulose discs and washed twice in 1% acetic acid then water for 5 min each followed by scintillation counting. […] The % inhibition of the test compound was determined for at least three different concentrations and the IC50 value was evaluated from the dose response curve. […] CPM(control) is in units of counts per minute and was a number expressing the amount of radiolabeled ATP (g-^33P) incorporated into the RR-SRC peptide substrate by the enzyme after 30 minutes at 30°C in the absence of test compound as measured by liquid scintillation counting. The CPM values were corrected for the background counts produced by ATP in the absence of the enzymatic reaction. The IC50 values reported in TABLE 1 are averages of the number of tests conducted.
# [32] = tested on: NEU-3T3; experiment: Inhibition of cell growth by incorporation of [3H]-thymidine, Neu-3T3; type: cell-based, mouse; conditions: [3H]-thymidine incorporation
# Procedure: as §1, §2, §3
# [33] = tested on: SKBR3; experiment: Inhibition of cell growth by incorporation of [3H]-thymidine, SKBR3; type: cell-based, human; conditions: [3H]-thymidine incorporation
# Procedure: as §1, §2, §3
structure (smiles),measurement,setting,value
"C=CC(=O)Nc1ccc2ncc(C#N)c(Nc3cccc(Br)c3)c2c1 [Example 18, N-[4-[(3-Bromophenyl)amino]-3-cyano-6-quinolinyl]-2-propenamide]",pIC50,"[1]; Homo sapiens, A-431, read-out: IC50 A431",11.00
same,pIC50,[2]; Homo sapiens,8.15
same,IC50,[3],0.415 µg/mL
same,IC50,[4],0.628 µg/mL
same,IC50,[5],0.884 µg/mL
same,IC50,[6],1.47 µg/mL
same,IC50,[7],1.4 µg/mL
same,IC50,[8],1.9 µg/mL
same,IC50,[9],1.56 µg/mL
same,IC50,[10],0.576 µg/mL
same,IC50,[11],1.67 µg/mL
same,IC50,[12],1.59 µg/mL
same,IC50,[13],1.94 µg/mL
same,IC50,[14],1.17 µg/mL
same,IC50,[15],2.17 µg/mL
same,IC50,[16],0.152 µg/mL
same,IC50,[17],1.31 µg/mL
same,IC50,[18],1.12 µg/mL
same,IC50,[19],1.61 µg/mL
same,IC50,[20],0.0851 µg/mL
same,IC50,[21],0.249 µg/mL
same,IC50,[22],1.41 µg/mL
same,IC50,[23],0.322 µg/mL
same,IC50,[24],2.35 µg/mL
same,IC50,[25],0.146 µg/mL
same,IC50,[26],1.43 µg/mL
same,IC50,[27],1.04 µg/mL
same,IC50,[28],1.85 µg/mL
same,reduced tumor size,[29]; day 7,29%
same,reduced tumor size,"[29]; day 14, p <0.01",45%
same,Tumor growth versus control,[29]; days 21 and 28,not reduced versus control
same,pIC50,[30],< 4.00
same,pIC50,[31],10.68
"CCOC(=O)c1cnc2cc(OC)c(OC)cc2c1O [Example 26, 3-Carbethoxy-4-hydroxy-6.7-dimethoxyquinoline]",pIC50,"[1]; [3H]-thymidine incorporation, A431, read-out: IC50 A431",7.00
same,pIC50,[32],< 4.30
same,pIC50,[2]; [3H]-thymidine incorporation,6.40
same,pIC50,[33],< 4.30
